Data: the supplement of paper PMC11451515

How the values were obtained:
Details in all cases: 48 h
NOMO1 [1] = assay: AUC of viability dose-response curve (% viability x log10 dose units); higher = less sensitive
In short: (§1)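 Area under the curve was integrated by trapezoidal rule from a log-logistic fit of normalised viability, with curves exceeding full viability scaled and quality-control failures removed. The fit had four parameters over log10 doses. Viability came from CellTiter-Glo One luminescence, normalised per plate to DMSO and cell-free wells, after leukemia cells adapted to each medium (500 or 1000 cells/well, 1536-well plates) were exposed to library compounds in DMSO for 48 h at 37°C. The 11 threefold doses ran from 47 μM to 0.79 nM.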

SEM cells [2] = assay: as above
In short: as §1

P12-Ichikawa [3] = assay: as above
In short: as §1

NOMO1 [4] = assay: cell viability relative to DMSO control; higher = less cytotoxic
In short: (§2)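 In 1536-well plates, 5 μl of leukemia cells were seeded per well: 500 cells/well for NOMO1 or SEM and 1000 cells/well for P12-Ichikawa. Each line had first been adapted for at least four passages in each medium. Library compounds in DMSO were pin-dosed at 11 threefold concentrations between 47 μM and 0.79 nM, and CellTiter-Glo One luminescence was read after 48 h at 37°C. Viability is a per-plate percentage relative to DMSO wells, with cell-free wells as background.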

SEM cells [5] = assay: as above
In short: as §2

P12-Ichikawa [6] = assay: as above
In short: as §2

CCC[C@H]1C[C@H](C(=O)N[C@@H]([C@@H]2O[C@@H](SC)[C@@H](O)[C@@H](O)[C@H]2O)[C@H](C)Cl)N(C)C1
AUC of viability dose-response curve
Details | NOMO1 [1] | P12-Ichikawa [3] | SEM cells [2]
HPLM + 10% dialyzed FBS | 459 | 465 | 447
RPMI 5 mM glucose + 10% FBS | 430 | 455 | 450
RPMI 5 mM glucose + 10% dialyzed FBS | 439 | 467 | 447

cell viability [%]
Details | NOMO1 [4] | P12-Ichikawa [6] | SEM cells [5]
HPLM + 10% dialyzed FBS, 0.000781 µM | 102 | 103 | 79
HPLM + 10% dialyzed FBS, 0.00234 µM | 117 | 117 | 90.9
HPLM + 10% dialyzed FBS, 0.00702 µM | 106 | 115 | 91.2
HPLM + 10% dialyzed FBS, 0.0211 µM | 119 | 120 | 95.1
HPLM + 10% dialyzed FBS, 0.0632 µM | 128 | 119 | 100
HPLM + 10% dialyzed FBS, 0.19 µM | 121 | 124 | 94.1
HPLM + 10% dialyzed FBS, 0.569 µM | 131 | 123 | 130
HPLM + 10% dialyzed FBS, 1.71 µM | 118 | 124 | 106
HPLM + 10% dialyzed FBS, 5.12 µM | 124 | 125 | 109
HPLM + 10% dialyzed FBS, 15.4 µM | 137 | 118 | 98.4
HPLM + 10% dialyzed FBS, 46.1 µM | 114 | 127 | 99.9
RPMI 5 mM glucose + 10% FBS, 0.000781 µM | 119 | 105 | 101
RPMI 5 mM glucose + 10% FBS, 0.00234 µM | 115 | 113 | 114
RPMI 5 mM glucose + 10% FBS, 0.00702 µM | 108 | 112 | 117
RPMI 5 mM glucose + 10% FBS, 0.0211 µM | 118 | 121 | 101
RPMI 5 mM glucose + 10% FBS, 0.0632 µM | 112 | 132 | 132
RPMI 5 mM glucose + 10% FBS, 0.19 µM | 134 | 131 | 112
RPMI 5 mM glucose + 10% FBS, 0.569 µM | 123 | 137 | 112
RPMI 5 mM glucose + 10% FBS, 1.71 µM | 116 | 119 | 117
RPMI 5 mM glucose + 10% FBS, 5.12 µM | 129 | 130 | 110
RPMI 5 mM glucose + 10% FBS, 15.4 µM | 126 | 130 | 126
RPMI 5 mM glucose + 10% FBS, 46.1 µM | 143 | 134 | 124
RPMI 5 mM glucose + 10% dialyzed FBS, 0.000781 µM | 112 | 113 | 66.4
RPMI 5 mM glucose + 10% dialyzed FBS, 0.00234 µM | 117 | 122 | 84.7
RPMI 5 mM glucose + 10% dialyzed FBS, 0.00702 µM | 120 | 115 | 94
RPMI 5 mM glucose + 10% dialyzed FBS, 0.0211 µM | 113 | 115 | 87.3
RPMI 5 mM glucose + 10% dialyzed FBS, 0.0632 µM | 114 | 128 | 97.7
RPMI 5 mM glucose + 10% dialyzed FBS, 0.19 µM | 119 | 124 | 89.6
RPMI 5 mM glucose + 10% dialyzed FBS, 0.569 µM | 122 | 126 | 110
RPMI 5 mM glucose + 10% dialyzed FBS, 1.71 µM | 109 | 119 | 94.3
RPMI 5 mM glucose + 10% dialyzed FBS, 5.12 µM | 129 | 130 | 97.7
RPMI 5 mM glucose + 10% dialyzed FBS, 15.4 µM | 127 | 122 | 110
RPMI 5 mM glucose + 10% dialyzed FBS, 46.1 µM | 130 | 121 | 101

O=C(O)c1ccc2c(c1)nc(Nc1cccc(Cl)c1)c1ccncc12
AUC of viability dose-response curve
Details | NOMO1 [1] | P12-Ichikawa [3] | SEM cells [2]
HPLM + 10% dialyzed FBS | 425 | 453 | 421
RPMI 5 mM glucose + 10% FBS | 437 | 437 | 412
RPMI 5 mM glucose + 10% dialyzed FBS | 441 | 429 | 406

cell viability [%]
Details | NOMO1 [4] | P12-Ichikawa [6] | SEM cells [5]
HPLM + 10% dialyzed FBS, 0.000781 µM | 114 | 106 | 103
HPLM + 10% dialyzed FBS, 0.00234 µM | 109 | 112 | 114
HPLM + 10% dialyzed FBS, 0.00702 µM | 131 | 104 | 106
HPLM + 10% dialyzed FBS, 0.0211 µM | 115 | 104 | 105
HPLM + 10% dialyzed FBS, 0.0632 µM | 114 | 108 | 110
HPLM + 10% dialyzed FBS, 0.19 µM | 119 | 109 | 101
HPLM + 10% dialyzed FBS, 0.569 µM | 125 | 104 | 117
HPLM + 10% dialyzed FBS, 1.71 µM | 114 | 104 | 102
HPLM + 10% dialyzed FBS, 5.12 µM | 73.8 | 94.8 | 77.6
HPLM + 10% dialyzed FBS, 15.4 µM | 49.2 | 71.8 | 35.9
HPLM + 10% dialyzed FBS, 46.1 µM | 78.1 | 83.4 | 48.8
RPMI 5 mM glucose + 10% FBS, 0.000781 µM | 93 | 112 | 107
RPMI 5 mM glucose + 10% FBS, 0.00234 µM | 93.5 | 111 | 108
RPMI 5 mM glucose + 10% FBS, 0.00702 µM | 103 | 108 | 98.5
RPMI 5 mM glucose + 10% FBS, 0.0211 µM | 103 | 98.4 | 103
RPMI 5 mM glucose + 10% FBS, 0.0632 µM | 94.6 | 108 | 111
RPMI 5 mM glucose + 10% FBS, 0.19 µM | 103 | 108 | 127
RPMI 5 mM glucose + 10% FBS, 0.569 µM | 92.7 | 105 | 104
RPMI 5 mM glucose + 10% FBS, 1.71 µM | 90.8 | 100 | 98.1
RPMI 5 mM glucose + 10% FBS, 5.12 µM | 83.7 | 84.4 | 70.7
RPMI 5 mM glucose + 10% FBS, 15.4 µM | 65.6 | 58.9 | 32.1
RPMI 5 mM glucose + 10% FBS, 46.1 µM | 79.2 | 70.2 | 46
RPMI 5 mM glucose + 10% dialyzed FBS, 0.000781 µM | 100 | 99.4 | 103
RPMI 5 mM glucose + 10% dialyzed FBS, 0.00234 µM | 105 | 94.2 | 103
RPMI 5 mM glucose + 10% dialyzed FBS, 0.00702 µM | 101 | 93.8 | 105
RPMI 5 mM glucose + 10% dialyzed FBS, 0.0211 µM | 101 | 97.4 | 99.5
RPMI 5 mM glucose + 10% dialyzed FBS, 0.0632 µM | 107 | 100 | 107
RPMI 5 mM glucose + 10% dialyzed FBS, 0.19 µM | 99.1 | 95.9 | 125
RPMI 5 mM glucose + 10% dialyzed FBS, 0.569 µM | 91.9 | 94.5 | 114
RPMI 5 mM glucose + 10% dialyzed FBS, 1.71 µM | 101 | 101 | 102
RPMI 5 mM glucose + 10% dialyzed FBS, 5.12 µM | 81.5 | 77.8 | 62.2
RPMI 5 mM glucose + 10% dialyzed FBS, 15.4 µM | 47.2 | 51.4 | 30.4
RPMI 5 mM glucose + 10% dialyzed FBS, 46.1 µM | 77.5 | 73 | 38.5

CC(C)=CC[C@@H](O)C/1=C/C(=O)C2=C(O)C=CC(=C2C1=O)O
AUC of viability dose-response curve
Details | NOMO1 [1] | P12-Ichikawa [3] | SEM cells [2]
HPLM + 10% dialyzed FBS | 379 | 413 | 449
RPMI 5 mM glucose + 10% FBS | 354 | 415 | 407
RPMI 5 mM glucose + 10% dialyzed FBS | 368 | 434 | 431

cell viability [%]
Details | NOMO1 [4] | P12-Ichikawa [6] | SEM cells [5]
HPLM + 10% dialyzed FBS, 0.000781 µM | 91.5 | 90.8 | 76.2
HPLM + 10% dialyzed FBS, 0.00234 µM | 108 | 107 | 90.2
HPLM + 10% dialyzed FBS, 0.00702 µM | 95.5 | 111 | 89.5
HPLM + 10% dialyzed FBS, 0.0211 µM | 100 | 108 | 96
HPLM + 10% dialyzed FBS, 0.0632 µM | 105 | 109 | 98.3
HPLM + 10% dialyzed FBS, 0.19 µM | 113 | 109 | 97.7
HPLM + 10% dialyzed FBS, 0.569 µM | 123 | 118 | 93.5
HPLM + 10% dialyzed FBS, 1.71 µM | 85.1 | 111 | 91.4
HPLM + 10% dialyzed FBS, 5.12 µM | 33.5 | 104 | 98.7
HPLM + 10% dialyzed FBS, 15.4 µM | 25.8 | 17.1 | 119
HPLM + 10% dialyzed FBS, 46.1 µM | 17 | 8.56 | 77.4
RPMI 5 mM glucose + 10% FBS, 0.000781 µM | 93.7 | 93.6 | 82.4
RPMI 5 mM glucose + 10% FBS, 0.00234 µM | 105 | 113 | 76.6
RPMI 5 mM glucose + 10% FBS, 0.00702 µM | 102 | 114 | 79.2
RPMI 5 mM glucose + 10% FBS, 0.0211 µM | 102 | 120 | 81.9
RPMI 5 mM glucose + 10% FBS, 0.0632 µM | 95.7 | 120 | 93.2
RPMI 5 mM glucose + 10% FBS, 0.19 µM | 96 | 114 | 98.3
RPMI 5 mM glucose + 10% FBS, 0.569 µM | 108 | 120 | 92.3
RPMI 5 mM glucose + 10% FBS, 1.71 µM | 52.6 | 106 | 105
RPMI 5 mM glucose + 10% FBS, 5.12 µM | 17.3 | 108 | 86.2
RPMI 5 mM glucose + 10% FBS, 15.4 µM | 17.9 | 22.9 | 77.8
RPMI 5 mM glucose + 10% FBS, 46.1 µM | 12.2 | 8.56 | 47.1
RPMI 5 mM glucose + 10% dialyzed FBS, 0.000781 µM | 88.2 | 92.7 | 72.2
RPMI 5 mM glucose + 10% dialyzed FBS, 0.00234 µM | 92.6 | 106 | 87.8
RPMI 5 mM glucose + 10% dialyzed FBS, 0.00702 µM | 93 | 108 | 85.8
RPMI 5 mM glucose + 10% dialyzed FBS, 0.0211 µM | 113 | 108 | 95.5
RPMI 5 mM glucose + 10% dialyzed FBS, 0.0632 µM | 98.1 | 113 | 99
RPMI 5 mM glucose + 10% dialyzed FBS, 0.19 µM | 109 | 107 | 104
RPMI 5 mM glucose + 10% dialyzed FBS, 0.569 µM | 107 | 118 | 111
RPMI 5 mM glucose + 10% dialyzed FBS, 1.71 µM | 70.2 | 117 | 117
RPMI 5 mM glucose + 10% dialyzed FBS, 5.12 µM | 24.5 | 113 | 87.4
RPMI 5 mM glucose + 10% dialyzed FBS, 15.4 µM | 15.3 | 55.2 | 80.4
RPMI 5 mM glucose + 10% dialyzed FBS, 46.1 µM | 21.2 | 21 | 21.6
